Tested on: CD1 mice (wild-type and σ1R−/−)
Assay: Supraspinal analgesia, warm water (52 °C) tail-flick test
Type: in vivo, mouse
Settings: for effect of exogenous σ1R ligands on β-End 1–31 analgesia: 3 nmol icv 20 min before 0.5 nmol β-End 1–31 icv; for effect on DAMGO analgesia: icv 20 min before DAMGO (0.1 nmol icv), evaluated 15 min after DAMGO; for effect on analgesia of the DOR agonists DPDPE and D-Ala^2 Deltorphin II: icv 20 min before DPDPE (10 nmol) or D-Ala2-deltorphin II (10 nmol) icv; for effect of C-terminal peptides on β-End 1–31 and morphine analgesia: icv 20 min before 0.5 nmol β-End 1–31 or 10 nmol morphine icv; for effect on β-End 1–31 analgesia, nonphysiological fragments: 1 nmol icv 20 min before 0.5 nmol β-End 1–31 icv, 6 mice
Description: Upper panel: the withdrawal thresholds of the contralateral and ipsilateral paws were measured before (indicated as 0) and up to 14 days after surgery. […] Middle panel: 0.3 and 3 nmol of ^αN-acetyl β-End 1–31 were administered icv 7 days after surgery, and the nociceptive threshold was evaluated at the indicated postinjection intervals (in minutes). For every time interval studied in min or days, * indicates a significant difference from the group that received saline instead of ^αN-acetyl β-End 1–31; ϕ significant difference from the effect of 3 nmol ^αN-acetyl β-End 1–31. […] All data are presented as the mean ± SD of six mice. ANOVA followed by the Holm–Sidak multiple comparisons test, p < 0.05, 1-β > 0.80. […] Upper panel: wild-type mice were injected icv with saline, ^αN-acetyl β-End 1–31 (1 nmol/mouse) or the combination of the σ1R agonist PPCC (3 nmol/mouse) plus ^αN-acetyl β-End 1–31 20 min before morphine and β-End 1–31. Analgesia was evaluated by the warm water (52 °C) tail-flick test at the interval postinjection corresponding to their peak effect, 30 min. Lower panel: σ1R^−/− mice received 1 nmol ^αN-acetyl β-End 1–31, 20 min before morphine and β-End 1–31 and analgesia was evaluated as described above. Eight mice were used per strain and treatment. * Significant difference with respect to the group treated with morphine or β-End 1–31 alone. ANOVA followed by the Holm–Sidak multiple comparisons test, p < 0.05, 1-β > 0.80.
Figure 3 Effect of physiological β-End 1–31 derivatives on morphine and β-End 1–31 analgesia. […] (A) The mice were icv-injected with 25 nmol of β-End 1–26, β-End 1–27 and ^αN-acetylated derivatives 20 min before icv 0.5 nmol β-End 1–31. Analgesia was determined at the indicated postinjection intervals. (B) CD1 wild-type and σ1R^−/− mice were administered C terminal peptide sequences 27–31, 28–31 and 30–31 of β-End 1–31 through an icv injection 20 min before 0.5 nmol of the whole β-End 1–31 and morphine (10 nmols) were injected icv. […] (C) A series of exogenous σ1R ligands (3 nmol) were icv-injected 20 min before 0.5 nmol β-End 1–31 was administered via icv in wild-type mice. The σ1R antagonist S1RA was also icv-injected before β-End 1–31 was administered icv in σ1R^−/− mice. (D) The effects of several doses of S1RA on morphine analgesia were studied in wild-type and σ1R^−/− mice. […] ANOVA followed by the Holm–Sidak multiple comparisons test, p < 0.05, 1-β > 0.80.
(A) The effect of σ1R deletion on opioid- and cannabinoid-induced analgesia. Analgesic compounds were icv-injected into wild-type and σ1R^−/− mice, and analgesia was evaluated 30 min after morphine (3 nmol) and β-End 1–31 (0.5 nmol), 15 min after DAMGO (0.1 nmol) and DPDPE (10 nmol) and 10 min after WIN55,212-2 (15 nmol). The bars are the mean ± SD of eight mice per strain and treatment. * Significant difference with respect to the effect of the analgesic substance in the wild-type group. ANOVA followed by the Holm–Sidak multiple comparisons test, p < 0.05, 1-β > 0.80. (B) Coprecipitation of G proteins with MORs. Solubilized mouse brain cortical membranes enriched in synaptosomes (SBM) from CD1 wild-type (WT) and σ1R^−/− mice were solubilized with sonication in the presence of 1% NP-40. Non-soluble debris was eliminated, and the samples were then incubated overnight at 4 °C with affinity-purified biotinylated IgGs that were raised against extracellular regions of the MOR. Protein complexes that were immunoprecipitated with streptavidin agarose were extensively washed and then resolved by SDS-PAGE.

Compound: Br.Br.CN(C)CCN(C)CCc1ccc(Cl)c(Cl)c1 [BD1047, N′-[2-(3,4-dichlorophenyl)ethyl]-N,N,N′-trimethylethane-1,2-diamine;dihydrobromide, reference compound]
- effect of exogenous σ1R ligands on β-End 1–31 analgesia (wild-type mice): diminished

Compound: COC(=O)[C@]1(c2ccc(C)cc2)C[C@@H]1CN1CCC(O)(c2ccccc2)CC1 [PPCC, (1R,2S/1S,2R)-2-[4-hydroxy-4-phenylpiperidin-1-yl)methyl]-1-(4-methylphenyl) cyclopropanecarboxylate, reference compound]
- effect of exogenous σ1R ligands on β-End 1–31 analgesia (wild-type mice): did not alter the effect of β-End 1–31
- effect on the antagonist activity of β-End C-terminal peptides (PPCC 3 nmol icv 10 min before the β-End C-terminal peptides): prevented
- effect on the impairment of morphine and β-End 1–31 analgesia by ^αN-acetyl β-End 1–31 (PPCC 3 nmol/mouse icv plus ^αN-acetyl β-End 1–31, wild-type mice): prevented the impairing effects

Compound: Cl.O=C(OCCN1CCOCC1)C1(c2ccccc2)CCCCC1 [PRE084, 2-(4-morpholinethyl)-1-phenylcyclohexanecarboxylate hydrochloride, reference compound]
- effect of exogenous σ1R ligands on β-End 1–31 analgesia (wild-type mice): did not alter the effect of β-End 1–31

Compound: Cc1cc(OCCN2CCOCC2)nn1-c1ccc2ccccc2c1 [S1RA]
- effect of exogenous σ1R ligands on β-End 1–31 analgesia (wild-type mice): diminished
- effect on morphine analgesia, 3 nmol (3 nmol icv, wild-type mice): produced the maximum increase
- effect on morphine analgesia, 10 nmol (10 nmol icv, wild-type mice): barely altered morphine effects
- effect on DAMGO analgesia: enhanced DAMGO analgesia
- effect on analgesia of the DOR agonists DPDPE and D-Ala^2 Deltorphin II: neither ^αN-acetyl β-End 1–31 nor S1RA altered the analgesic effects
- effect on morphine analgesia (icv before morphine, wild-type mice): enhanced morphine analgesia

Compound: KKGE [β-End 28–31, C-terminal tetrapeptide of β-End 1–31]
- effect of C-terminal peptides on β-End 1–31 and morphine analgesia (wild-type mice): reduced the analgesic activity of β-End 1–31 and morphine

Compound: YKKGE [β-End 27–31, C-terminal pentapeptide of β-End 1–31]
- effect of C-terminal peptides on β-End 1–31 and morphine analgesia (wild-type mice): reduced the analgesic activity of β-End 1–31 and morphine

Compound: ^αN-acetyl β-End 1–31: β-End 1–31 acetylated at N terminal Y1, α position
- effect on morphine and β-End 1–31 analgesic potency, 1 pmol (1 pmol icv 30 min before morphine and β-End 1–31, wild-type mice): significant reductions in their analgesic potency
- effect on DAMGO analgesia: enhanced DAMGO analgesia
- effect on analgesia of the DOR agonists DPDPE and D-Ala^2 Deltorphin II: neither ^αN-acetyl β-End 1–31 nor S1RA altered the analgesic effects
- icv dose at which the regulatory effects on analgesia reached a maximum (icv, persisted at 1 pmol or 1 nmol): 1 to 10 fmols
- effect on DAMGO and clonidine analgesia (increasing icv doses 20 min before DAMGO (0.1 nmol) or clonidine (150 nmol) icv, wild-type mice): increased
- effect on morphine and β-End 1–31 analgesia in σ1R−/− mice (σ1R−/− mice, icv before the opioids): not altered

Compound: β-End 6–31: β-End 1–31 lacking the N-terminal met-enkephalin 1–5 sequence (TSEKSQTPLVTLFKNAIIKNAYKKGE; Beta-endorphin; UniProt P01189 242-267, looked up, fragment)
- effect on β-End 1–31 analgesia, nonphysiological fragments: not produced

Compound: β-End 22–31: nonphysiological C-terminal sequence of β-End 1–31 (IIKNAYKKGE; Beta-endorphin; UniProt P01189 258-267, looked up, fragment)
- effect on β-End 1–31 analgesia, nonphysiological fragments: reduced β-End 1–31 analgesia
